# Laboratory results published in ChEMBL document CHEMBL2010688, “Tri- and tetrasubstituted pyrazole derivates: regioisomerism switches activity from p38MAP kinase to important cancer kinases” (J Med Chem, 2012).
# Calls of active or inactive are those of the source. The rule behind the calls is not given here.
# Legend:
# [1] = target: Mitogen-activated protein kinase 14 (Homo sapiens) (UniProt Q16539); experiment: Inhibition of p38alpha MAP kinase
# [2] = target: Serine/threonine-protein kinase B-raf (Homo sapiens, UniProt P15056, V600E); experiment: Inhibition of BRAF V600E mutant using MEK1-KM as substrate assessed as [33P-gamma]-ATP incorporation after 60 mins by microplate scintillation counting
# Sequence of Serine/threonine-protein kinase B-raf (Homo sapiens, UniProt P15056, V600E) (P15056 2-766 V600E limits assumed): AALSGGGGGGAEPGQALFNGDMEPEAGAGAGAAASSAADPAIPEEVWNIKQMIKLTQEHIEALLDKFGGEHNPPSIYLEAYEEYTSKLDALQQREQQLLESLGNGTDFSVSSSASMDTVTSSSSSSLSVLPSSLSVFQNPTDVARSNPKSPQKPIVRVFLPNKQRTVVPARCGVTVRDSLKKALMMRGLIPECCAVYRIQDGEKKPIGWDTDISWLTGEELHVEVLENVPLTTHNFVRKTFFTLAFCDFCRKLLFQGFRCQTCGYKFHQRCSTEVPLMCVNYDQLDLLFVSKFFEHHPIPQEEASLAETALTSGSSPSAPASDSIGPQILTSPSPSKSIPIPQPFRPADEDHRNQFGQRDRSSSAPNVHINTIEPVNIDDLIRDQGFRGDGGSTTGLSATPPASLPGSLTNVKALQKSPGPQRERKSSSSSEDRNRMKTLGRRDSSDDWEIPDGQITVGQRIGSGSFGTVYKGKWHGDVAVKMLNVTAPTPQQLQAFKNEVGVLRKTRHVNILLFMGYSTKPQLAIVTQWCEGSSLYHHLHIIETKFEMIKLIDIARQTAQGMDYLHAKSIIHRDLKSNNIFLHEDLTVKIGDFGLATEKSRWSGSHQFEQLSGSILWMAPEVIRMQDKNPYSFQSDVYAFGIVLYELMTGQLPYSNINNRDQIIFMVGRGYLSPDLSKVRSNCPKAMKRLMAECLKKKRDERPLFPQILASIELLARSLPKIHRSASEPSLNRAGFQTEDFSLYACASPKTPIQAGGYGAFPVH
# [3] = target: Proto-oncogene tyrosine-protein kinase Src (Homo sapiens, UniProt P12931); experiment: Inhibition of SRC using poly(Glu,Tyr) as substrate assessed as [33P-gamma]-ATP incorporation after 60 mins by microplate scintillation counting
# Sequence of Proto-oncogene tyrosine-protein kinase Src (P12931 2-536 limits assumed): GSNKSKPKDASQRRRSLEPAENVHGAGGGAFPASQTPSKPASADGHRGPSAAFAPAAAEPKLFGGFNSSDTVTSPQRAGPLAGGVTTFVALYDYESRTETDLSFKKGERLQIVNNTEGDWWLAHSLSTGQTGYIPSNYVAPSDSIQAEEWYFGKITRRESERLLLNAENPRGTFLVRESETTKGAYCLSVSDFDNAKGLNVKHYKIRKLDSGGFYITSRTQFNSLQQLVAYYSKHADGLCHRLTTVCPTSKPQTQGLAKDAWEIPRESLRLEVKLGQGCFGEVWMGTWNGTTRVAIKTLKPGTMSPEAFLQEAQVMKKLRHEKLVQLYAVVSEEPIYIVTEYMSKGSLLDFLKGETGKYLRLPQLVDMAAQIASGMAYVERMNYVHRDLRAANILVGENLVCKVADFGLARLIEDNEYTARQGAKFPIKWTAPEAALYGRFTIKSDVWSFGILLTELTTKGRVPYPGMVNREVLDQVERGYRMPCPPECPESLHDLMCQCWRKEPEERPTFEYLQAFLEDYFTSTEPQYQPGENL
# [4] = target: Vascular endothelial growth factor receptor 2 (Homo sapiens, UniProt P35968); experiment: Inhibition of VEGFR2 using poly(Glu,Tyr) as substrate assessed as [33P-gamma]-ATP incorporation after 60 mins by microplate scintillation counting
# Sequence of Vascular endothelial growth factor receptor 2 (P35968 whole entry): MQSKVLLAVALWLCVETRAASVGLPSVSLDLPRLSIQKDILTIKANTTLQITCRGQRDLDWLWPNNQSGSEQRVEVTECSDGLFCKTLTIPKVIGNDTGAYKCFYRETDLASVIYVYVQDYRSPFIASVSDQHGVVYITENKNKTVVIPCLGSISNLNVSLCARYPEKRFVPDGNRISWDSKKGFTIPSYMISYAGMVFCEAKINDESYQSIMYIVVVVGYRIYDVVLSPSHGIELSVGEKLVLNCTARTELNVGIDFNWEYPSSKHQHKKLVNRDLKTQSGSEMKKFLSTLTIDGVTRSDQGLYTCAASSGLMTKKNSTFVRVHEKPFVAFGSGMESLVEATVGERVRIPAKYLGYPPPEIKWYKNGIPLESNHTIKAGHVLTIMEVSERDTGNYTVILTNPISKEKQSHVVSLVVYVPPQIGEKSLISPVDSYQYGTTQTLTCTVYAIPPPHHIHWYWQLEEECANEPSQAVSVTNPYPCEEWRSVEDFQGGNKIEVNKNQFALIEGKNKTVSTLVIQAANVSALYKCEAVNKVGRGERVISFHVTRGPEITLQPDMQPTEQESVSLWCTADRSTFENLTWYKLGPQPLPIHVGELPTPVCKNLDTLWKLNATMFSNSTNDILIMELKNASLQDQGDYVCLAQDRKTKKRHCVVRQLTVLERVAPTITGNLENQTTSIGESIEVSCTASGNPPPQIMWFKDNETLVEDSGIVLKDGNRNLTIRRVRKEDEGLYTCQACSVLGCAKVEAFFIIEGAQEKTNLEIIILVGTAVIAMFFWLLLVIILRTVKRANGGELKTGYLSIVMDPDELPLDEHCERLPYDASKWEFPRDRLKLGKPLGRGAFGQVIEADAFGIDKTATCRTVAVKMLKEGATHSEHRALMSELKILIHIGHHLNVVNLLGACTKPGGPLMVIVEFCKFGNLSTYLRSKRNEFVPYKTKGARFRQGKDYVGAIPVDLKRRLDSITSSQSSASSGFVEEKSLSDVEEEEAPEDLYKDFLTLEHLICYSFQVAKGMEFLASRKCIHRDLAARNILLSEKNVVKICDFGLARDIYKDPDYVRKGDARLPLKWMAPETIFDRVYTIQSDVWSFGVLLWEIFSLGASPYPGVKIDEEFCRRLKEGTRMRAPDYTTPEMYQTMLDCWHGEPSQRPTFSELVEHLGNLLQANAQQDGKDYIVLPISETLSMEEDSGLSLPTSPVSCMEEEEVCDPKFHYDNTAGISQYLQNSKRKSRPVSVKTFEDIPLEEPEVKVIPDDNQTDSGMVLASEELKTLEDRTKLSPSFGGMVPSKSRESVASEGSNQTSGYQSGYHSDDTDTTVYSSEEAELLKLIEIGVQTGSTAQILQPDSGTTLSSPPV
# [5] = target: Serine/threonine-protein kinase B-raf (Homo sapiens, UniProt P15056); experiment: Inhibition of wild type B-Raf using MEK1-KM as substrate assessed as [33P-gamma]-ATP incorporation after 60 mins by microplate scintillation counting
# Sequence of Serine/threonine-protein kinase B-raf (Homo sapiens, UniProt P15056) (P15056 whole entry): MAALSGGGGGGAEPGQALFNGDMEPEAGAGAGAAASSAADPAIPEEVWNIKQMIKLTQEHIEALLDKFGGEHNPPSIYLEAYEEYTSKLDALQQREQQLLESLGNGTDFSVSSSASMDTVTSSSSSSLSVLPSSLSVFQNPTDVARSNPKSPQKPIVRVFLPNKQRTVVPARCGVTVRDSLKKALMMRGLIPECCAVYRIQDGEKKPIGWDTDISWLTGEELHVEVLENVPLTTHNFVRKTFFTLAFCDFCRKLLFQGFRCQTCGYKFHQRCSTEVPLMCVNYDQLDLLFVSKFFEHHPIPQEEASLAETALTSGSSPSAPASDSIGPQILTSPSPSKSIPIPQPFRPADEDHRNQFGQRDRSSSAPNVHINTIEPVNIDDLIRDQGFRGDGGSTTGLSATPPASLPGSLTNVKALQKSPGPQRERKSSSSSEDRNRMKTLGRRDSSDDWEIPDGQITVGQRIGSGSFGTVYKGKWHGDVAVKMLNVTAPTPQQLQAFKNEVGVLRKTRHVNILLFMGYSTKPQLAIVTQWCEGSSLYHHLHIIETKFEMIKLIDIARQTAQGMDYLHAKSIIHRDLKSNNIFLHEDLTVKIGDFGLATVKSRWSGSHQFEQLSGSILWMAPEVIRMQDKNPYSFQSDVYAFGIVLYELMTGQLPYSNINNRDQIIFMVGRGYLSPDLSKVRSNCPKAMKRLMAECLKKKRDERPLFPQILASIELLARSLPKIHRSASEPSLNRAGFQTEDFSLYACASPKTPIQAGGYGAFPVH
# Sequence of Mitogen-activated protein kinase 14 (Homo sapiens) (Q16539 whole entry): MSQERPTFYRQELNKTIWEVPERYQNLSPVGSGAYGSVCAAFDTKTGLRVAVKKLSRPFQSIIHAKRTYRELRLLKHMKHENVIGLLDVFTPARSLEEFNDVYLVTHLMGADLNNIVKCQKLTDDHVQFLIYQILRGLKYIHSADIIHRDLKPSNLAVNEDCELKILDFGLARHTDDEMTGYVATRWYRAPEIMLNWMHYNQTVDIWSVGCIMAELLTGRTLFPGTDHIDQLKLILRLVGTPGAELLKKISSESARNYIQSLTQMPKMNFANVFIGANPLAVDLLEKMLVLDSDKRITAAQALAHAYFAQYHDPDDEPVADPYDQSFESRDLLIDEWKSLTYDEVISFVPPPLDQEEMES
SMILES,inhibition [1],IC50 [2] [nM],IC50 [3] [nM],IC50 [4] [nM],IC50 [5] [nM]
Nc1cc(-c2ccncc2)nn1-c1c(Cl)cc(Cl)cc1Cl,inactive,> 100000,> 100000,–,–
N#Cc1ccc(-n2nc(-c3ccncc3)c(-c3ccc(F)cc3)c2N)cc1,inactive,–,> 100000,–,–
COc1ccc(-n2nc(-c3ccncc3)c(-c3ccc(F)cc3)c2N)cc1,inactive,–,–,–,–
Nc1c(C(=O)O)c(-c2ccncc2)nn1-c1c(Cl)cc(Cl)cc1Cl,inactive,> 100000,–,–,–
Nc1c(-c2ccc(F)cc2)c(-c2ccncc2)nn1-c1ccccc1,inactive,–,–,–,–
Nc1c(-c2ccc(F)cc2)c(-c2ccncc2)nn1-c1ccc(C(F)(F)F)cc1,inactive,1500,6700,2400,–
Fc1ccc(-c2cn(-c3ccc(C(F)(F)F)cc3)nc2-c2ccncc2)cc1,inactive,–,–,–,–
Nc1c(-c2ccc(F)cc2)c(-c2ccncc2)nn1-c1c(Cl)cc(Cl)cc1Cl,inactive,592,399,34,270
Cc1ccc(-n2nc(-c3ccncc3)c(-c3ccc(F)cc3)c2N)cc1,inactive,890,53000,2600,–

# Further lines, with some results ahead:
inhibition [1],IC50 [2] [nM],IC50 [3] [nM],IC50 [4] [nM],SMILES,IC50 [5] [nM]
inactive,800,23000,1200,Nc1c(-c2ccc(F)cc2)c(-c2ccncc2)nn1-c1ccc(Cl)cc1,–
inactive,2500,2000,210,Fc1ccc(-c2cn(-c3c(Cl)cc(Cl)cc3Cl)nc2-c2ccncc2)cc1,–
inactive,–,–,–,NC(=O)c1c(-c2ccncc2)nn(-c2ccccc2)c1N,–
inactive,1400,82000,1400,Nc1c(-c2ccc(F)cc2)c(-c2ccncc2)nn1-c1ccc([N+](=O)[O-])cc1,–
inactive,> 100000,–,–,NC(=O)c1c(-c2ccncc2)nn(-c2c(Cl)cc(Cl)cc2Cl)c1N,–
inactive,> 100000,> 100000,> 100000,CCOC(=O)c1c(-c2ccncc2)nn(-c2c(Cl)cc(Cl)cc2Cl)c1N,–
